Data reported in patent publication US8901138B2, “Sulfoximine substituted quinazolines for pharmaceutical compositions” (Boehringer Ingelheim International GmbH, priority 2012, dated 2014).

Assays:
MNK1a = MNK1a (Homo sapiens, UniProt Q9BUB5); assay: MNK1 in vitro kinase assay (assay 2), Z'-LYTE; format: biochemical; details: for inhibition at 1 µM: compound concentration of 1 μM; for IC50: pre-activated GST-MNK1a
Source text: B. MNK1 In Vitro Kinase Assay (Assay 2)
MNK1 Data can be obtained from the MNK1 Z′-LYTE® assay. The MNK1 Z′-LYTE® screening protocol and assay conditions are also described on www.invitrogen.com.
The assay is described as follows:
The Z′-LYTE® biochemical assay employs a fluorescence-based, coupled-enzyme format and is based on the differential sensitivity of phosphorylated and non-phosphorylated peptides to proteolytic cleavage. The peptide substrate is labeled with two fluorophores—one at each end—that make up a FRET pair.
In the primary reaction, the kinase transfers the gamma-phosphate of ATP to a single tyrosine, serine or threonine residue in a synthetic FRET-peptide. In the secondary reaction, a site-specific protease recognizes and cleaves non-phosphorylated FRET-peptides. Phosphorylation of FRET-peptides suppresses cleavage by the Development Reagent. Cleavage disrupts FRET between the donor (i.e., coumarin) and acceptor (i.e., fluorescein) fluorophores on the FRET-peptide, whereas uncleaved, phosphorylated FRET-peptides maintain FRET. A ratiometric method, which calculates the ratio (the Emission Ratio) of donor emission to acceptor emission after excitation of the donor fluorophore at 400 nm, is used to quantitate reaction progress, as shown in the equation below. Emission Ratio=Coumarin Emission(445 nm)/Fluorescein Emission(520 nm)
ASSAY SETUP: The inhibition of kinase activity of MNK1a was assessed using pre-activated GST-MNK1a. The 2×MKNK1 (MNK1) mixture is prepared in 50 mM HEPES pH 7.5, 0.01% BRIJ-35, 10 mM MgCl2, 4 mM MnCl2, 1 mM EGTA, 2 mM DTT. The final 10 μL Kinase Reaction consists of 13.5-54 ng MKNK1 (MNK1) and 2 μM Ser/Thr 07 in 50 mM HEPES pH 7.5, 0.01% BRIJ-35, 10 mM MgCl2, 2 mM MnCl2, 1 mM EGTA, 1 mM DTT. After the 1 hour Kinase Reaction incubation, 5 μL of a 1:32768 dilution of Development Reagent A is added.
The Test Compounds are screened in 1% DMSO (final) in the well.
All Peptide/Kinase Mixtures are diluted to a 2× working concentration in the MNK1 Kinase Buffer.
All ATP Solutions are diluted to a 4× working concentration in Kinase Buffer (50 mM HEPES pH 7.5, 0.01% BRIJ-35, 10 mM MgCl2, 1 mM EGTA).
Development Reagent Solution:
The Development Reagent is diluted in Development Buffer
Bar-coded Corning, low volume NBS, 384-well plate (Corning Cat. #3676)
1. 2.5 μL-4× Test Compound
2. 5 μL-2× Peptide/Kinase Mixture
5. 60-minute Kinase Reaction incubation at room temperature
6. 5 μL-Development Reagent Solution
8. 60-minute Development Reaction incubation at room temperature
9. Read on fluorescence plate reader and analyze the data
The following equations are used for each set of data points: […]
Correction for Background Fluorescence: FSample−FITCFl Ctl
Emission Ratio (using values corrected for background fluorescence):Coumarin
Emission (445 nm)/Fluorescein Emission (520 nm)
% Phosphorylation (% Phos): 1−((Emission Ratio×F100%)−C100%)/((C0%−C100%)+[Emission Ratio×(F100%−F0%)])*100 % Inhibition: 1−(% PhosSample/% Phos0% Inhibition Ctl)*100 FI=Fluorescence Intensity C100%=Average Coumarin emission signal of the 100% Phos. Control C0%=Average Coumarin emission signal of the 0% Phos. Control F100%=Average Fluorescein emission signal of the 100% Phos. Control F0%=Average Fluorescein emission signal of the 0% Phos. Control Graphing Software
SelectScreen® Kinase Profiling Service uses XLfit from IDBS. The dose response curve is curve fit to model number 205 (sigmoidal dose-response model).

MNK2a = molecular target: T1, MNK2a (Homo sapiens, UniProt Q9HBH9); assay: MNK2a in vitro kinase assay (assay 1), ADP-Glo; format: biochemical; details: preactivated GST-MNK2a, 20 μM ATP, read-out: MNK2 IC50
T1 construct: made in house
T1 sequence (Q9HBH9 whole entry): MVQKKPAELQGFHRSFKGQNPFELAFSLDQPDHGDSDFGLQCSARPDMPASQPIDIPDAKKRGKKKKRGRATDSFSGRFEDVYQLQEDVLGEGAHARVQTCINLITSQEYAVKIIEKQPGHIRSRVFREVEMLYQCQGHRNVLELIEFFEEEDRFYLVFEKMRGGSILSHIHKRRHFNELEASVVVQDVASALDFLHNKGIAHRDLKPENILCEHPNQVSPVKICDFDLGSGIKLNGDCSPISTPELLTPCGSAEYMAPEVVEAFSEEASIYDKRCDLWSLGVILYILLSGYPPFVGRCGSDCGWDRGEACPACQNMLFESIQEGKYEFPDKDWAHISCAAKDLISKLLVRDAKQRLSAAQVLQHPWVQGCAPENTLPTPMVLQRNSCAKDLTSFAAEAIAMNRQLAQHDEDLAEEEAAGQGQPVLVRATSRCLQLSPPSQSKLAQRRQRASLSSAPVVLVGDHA
Procedure: A. MNK2a In Vitro Kinase Assay (Assay 1)
ASSAY SETUP: The inhibition of kinase activity of MNK2a was assessed using preactivated GST-MNK2a. The white, 384-well OptiPlate F plates were purchased from Perkin Elmer. The ADP-Glo Kinase Assay (including ultra pure ATP) was purchased from Promega (V9103). Activated MNK2a was obtained as described in WO2011/104340. The unlabeled eIF4E peptide (NH2-[…]—CONH2) (SEQ ID NO: 1), differing from Seq. ID No. 5 of WO 2011/104340 by the C-terminal —CONH2 group, was purchased from Thermo Fisher Scientific. All other materials were of highest grade commercially available. Compounds are tested in either serial dilutions or single dose concentrations. The compound stock solutions are 10 mM in 100% DMSO The serial compound dilutions are prepared in 100% DMSO followed by 1:27.3 intermediate dilution in assay buffer. The final DMSO concentration in assay will be <3%. In the 384-well plates 3 μl of test compound from the intermediate dilution is mixed with 4 μl of the activated MNK2 enzyme (final concentration of 10 nM) and 4 μl of the peptide (final concentration of 25 μM)/ultra pure ATP (final concentration of 20 μM), all dissolved in assay buffer. This step is followed by an incubation time of 90 min, then 10 μl of ADP Glo reagent are added, followed by 40 min of incubation. Then 20 μl of kinase detection reagent are admixed. The plates are sealed and after an incubation period of 30 min, the luminescence signal is measured in an Envision reader to determine the amount of produced ADP. All incubation steps are performed at room temperature. The assay buffer consists of 20 mM HEPES, 2 mM DTT, 0.01% BSA, 20 mM MgCl2 and 0.1% Pluronic F-127.
Each assay microtiter plate contains wells with vehicle controls instead of compound (1% DMSO in water) as reference for the high signal (100% CTL, high signal), and wells containing a potent MNK2 inhibitor (final 20 μM, 1% DMSO) as reference for low signal (0% CTL, low signal).
The luminescent signal generated is proportional to the ADP concentration produced and is correlated with activated MNK2 activity. The analysis of the data is performed by the calculation of the percentage of ATP consumption of activated MNK2 in the presence of the test compound compared to the consumption of ATP in the presence of activated MNK2 without compound. (RLU(sample)−RLU(low control))*100/(RLU(high value)−RLU(low control)) [RLU=relative luminescence units]
An inhibitor of the MNK2 enzyme will give values between 100% CTL (no inhibition) and 0% CTL (complete inhibition). Values of more than 100% CTL are normally related to compound/sample specific physico-chemical properties (e.g. solubility, light absorbance, fluorescence).
IC50 values based on dose response curves are calculated with the AssayExplorer software.

Chain of MNK1a (Q9BUB5 1-424 isoform Q9BUB5-2): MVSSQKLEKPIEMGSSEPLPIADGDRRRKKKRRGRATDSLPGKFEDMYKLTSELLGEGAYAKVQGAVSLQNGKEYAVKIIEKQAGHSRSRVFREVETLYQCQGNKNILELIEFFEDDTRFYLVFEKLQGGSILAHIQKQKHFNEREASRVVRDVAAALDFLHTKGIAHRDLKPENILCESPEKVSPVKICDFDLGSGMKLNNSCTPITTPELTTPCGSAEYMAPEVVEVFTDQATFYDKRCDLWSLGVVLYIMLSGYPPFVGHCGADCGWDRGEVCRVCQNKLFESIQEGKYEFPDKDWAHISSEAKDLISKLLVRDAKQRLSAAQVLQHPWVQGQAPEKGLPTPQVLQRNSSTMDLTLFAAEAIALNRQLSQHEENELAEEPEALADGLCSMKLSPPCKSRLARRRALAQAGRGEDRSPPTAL

| Structure (SMILES) | inhibition at 1 µM (MNK1a) | IC50 (MNK2a) | IC50 (MNK1a) |
| --- | --- | --- | --- |
| Cc1cc(N=S2(=O)CCCC2)cc2ncnc(Nc3ccc(F)cc3O[C@@H]3CCNC3)c12 [Example 3.4] | 92% |  |  |
| Cc1cc(N=S2(=O)CCCC2)cc2ncnc(Nc3ccc(F)cc3O[C@@H]3CCCN(CCO)C3)c12 [Example 6.7] | 100% | 2 nM |  |
| CO[C@@H]1CO[C@H]2[C@@H]1OC[C@H]2Oc1cc(F)ccc1Nc1ncnc2cc(N=S(C)(C)=O)cc(OCC(F)F)c12 [Example 5.7] |  | 2 nM | 43 nM |
| Cc1cc(N=S(C)(=O)C(C)(C)C)cc2ncnc(Nc3ccc(F)cc3O[C@@H]3CO[C@@H]4CCO[C@@H]43)c12 (stereo partly drawn) [Example 2.108] | 99% | 3 nM |  |
| CCO[C@@H]1CO[C@H]2[C@@H]1OC[C@H]2Oc1cc(F)ccc1Nc1ncnc2cc(N=S(C)(C)=O)cc(C)c12 [Example 2.7] | 98% | 1 nM |  |
| Cc1cc(N=S(C)(C)=O)cc2ncnc(Nc3ccc(F)cc3OC3(C)CC3)c12 [Example 1.28] | 89% | 4 nM |  |
| CCS(=O)(CC)=Nc1cc(C)c2c(Nc3ccc(F)cc3O[C@H]3CC[C@H](OC)CC3)ncnc2c1 [Example 2.12] | 24% | 13 nM |  |
| CCS(C)(=O)=Nc1cc(C)c2c(Nc3ccc(F)cc3O[C@H]3CC[C@H](OC)CC3)ncnc2c1 (stereo partly drawn) [Example 2.81] | 92% | 4 nM |  |
| Cc1cc(N=S(C)(C)=O)cc2ncnc(Nc3cccnc3O[C@H]3CCCNC3)c12 [Example 1.37] |  | 4 nM | 28 nM |
| COC(=O)N1CCS(=O)(=Nc2cc(C)c3c(Nc4ccc(F)cc4O[C@H]4CC[C@H](OC)CC4)ncnc3c2)CC1 [Example 7.3] | 72% |  |  |
| CS(C)(=O)=Nc1cc(F)c2c(Nc3ccc(F)cc3O[C@@H]3CCCNC3)ncnc2c1 [Example 3.8] | 79% | 22 nM |  |
| Cc1cc(N=S(C)(C)=O)cc2ncnc(Nc3ccc(C(N)=O)cc3OC3CCOCC3)c12 [Example 2.16] | 94% | 10 nM |  |
| Cc1cc(N=S(C)(C)=O)cc2ncnc(Nc3ccc(F)cc3O[C@@H]3CO[C@H]4[C@@H]3OC[C@H]4O)c12 [Example 1.18] | 100% | 2 nM |  |
| Cc1cc(N=S(C)(C)=O)cc2ncnc(Nc3ccc(F)cc3O[C@@H]3CO[C@H]4[C@@H]3OC[C@H]4C#N)c12 [Example 2.30] | 88% | 7 nM |  |
| CO[C@H]1CC[C@H](Oc2cc(F)ccc2Nc2ncnc3cc(N=S(C)(C)=O)cc(C)c23)CC1 [Example 2.75] | 100% | 3 nM | 75 nM |
| Cc1cc(N=S(C)(C)=O)cc2ncnc(Nc3ccc(F)cc3O[C@@H]3CO[C@H]4[C@@H]3OC[C@@]4(C)O)c12 [Example 2.45] | 90% | 2 nM |  |

| Structure (SMILES) | inhibition at 1 µM (MNK1a) | IC50 (MNK2a) | IC50 (MNK1a) |
| --- | --- | --- | --- |
| COc1cc(N=S(C)(C)=O)cc2ncnc(Nc3ccc(F)cc3O[C@@H]3CO[C@H]4[C@@H]3OC[C@H]4OC)c12 [Example 2.1] |  | 1 nM | 11 nM |
| Cc1cc(N=S(C)(C)=O)cc2ncnc(Nc3ccc(Br)cc3OC3CCOCC3)c12 [Example 1.10] | 80% |  |  |
| Cc1cc(N=S(C)(C)=O)cc2ncnc(Nc3ccc(F)cc3O[C@@H]3CO[C@H]4[C@@H]3OC[C@@H]4O)c12 [Example 1.1] | 98% | 1 nM |  |
| CO[C@H]1CC[C@H](Oc2cc(F)ccc2Nc2ncnc3cc(N=S4(=O)CCOCC4)cc(F)c23)CC1 [Example 2.56] | 76% | 11 nM |  |
| Cc1cc(N=S(C)(C)=O)cc2ncnc(Nc3ccc(F)cc3OC3CC3)c12 [Example 7.12] |  | 4 nM | 87 nM |
| Cc1cc(N=S2(=O)CCN(C(=O)OC(C)(C)C)CC2)cc2ncnc(Nc3ccc(F)cc3O[C@H]3CO[C@H]4[C@@H]3OC[C@H]4O)c12 [Example 2.21] | 81% |  |  |
| COCCS(C)(=O)=Nc1cc(C)c2c(Nc3ccc(F)cc3O[C@H]3CCOC3)ncnc2c1 (stereo partly drawn) [Example 2.63] | 85% |  |  |
| Cc1cc(N=S(C)(C)=O)cc2ncnc(Nc3cccnc3O[C@@H]3CCCN(CC(C)(C)O)C3)c12 [Example 6.5] | 91% |  |  |
| Cc1cc(N=S(C)(C)=O)cc2ncnc(Nc3ccc(F)cc3O[C@H]3CO[C@H]4[C@@H]3OC[C@H]4O)c12 [Example 2.19] | 47% |  |  |
| Cc1cc(N=S(C)(C)=O)cc2ncnc(Nc3ccc(F)cc3OC3CCOC3=O)c12 (stereo not drawn) [Example 4.13] | 75% |  |  |
| CCS(=O)(CC)=Nc1cc(C)c2c(Nc3ccc(F)cc3O[C@@H]3CO[C@H]4[C@@H]3OC[C@H]4O)ncnc2c1 [Example 2.86] | 89% |  |  |
| CO[C@H]1CC[C@H](Oc2cc(F)ccc2Nc2ncnc3cc(N=S(C)(C)=O)cc(F)c23)CC1 [Example 2.46] | 88% |  |  |
| Cc1cc(N=S2(=O)CCCC2)cc2ncnc(Nc3ccc(F)cc3O[C@H]3CCOC3)c12 [Example 2.85] | 100% |  |  |
| Cc1cc(N=S(C)(C)=O)cc2ncnc(Nc3ccc(F)cc3O[C@@H]3CCN(C(=O)OC(C)(C)C)C3)c12 [Example 2.52] | 60% |  |  |
| CC(C)(C)OC(=O)N1CC[C@@H](Oc2cc(F)ccc2Nc2ncnc3cc(N=S(C)(C)=O)cc(F)c23)C1 [Example 2.32] | 50% |  |  |
| CC(C)(O)CN1CCC[C@@H](Oc2ncccc2Nc2ncnc3cc(N=S(C)(C)=O)cc(F)c23)C1 [Example 6.19] | 70% |  |  |
